Results on four compounds are retold here after article PMC6949113, “Preclinical evaluation of AT-527, a novel guanosine nucleotide prodrug with potent, pan-genotypic activity against hepatitis C virus” (PLoS ONE, 2020).

Marks after values point to notes of the source that are not given here.

Series [1] is described as follows: Rat pharmacokinetic study, plasma. Format: in vivo, Sprague-Dawley rat. To be noted: for plasma concentration, individual rats: AT-527 500 mg/kg oral, male 1-3, female 7-9, BQL: <0.0017 AT-511, <0.0022 M1, <0.0032 AT-273, M4.
Series [2] is described as follows: Monkey PK study, plasma.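 On plasma concentration: concentrations in nmol/mL.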 Format: in vivo, cynomolgus monkey. To be noted: for plasma concentration: male cynomolgus monkeys; for AUC(0-t) / Cmax / MRT last / Tmax: male, cynomolgus, cynomolgus monkey, in vivo, po. From the text: (§1) Monkey PK study. Male non-naïve cynomolgus monkeys were obtained from Hainan Jingang Laboratory Animal Co., Ltd. (Hainan, China), group housed during the 5-day acclimation period or individually housed during the study in stainless steel mesh cages, provided ad libitum access to RO water, fed twice daily (~120 g Certified Monkey Diet daily; Beijing Vital Keao Feed Co., Ltd., Beijing, China) and given daily treats of fresh fruit. Additional environmental enrichment included classical music and cartoons. Three groups of 5 monkeys each were administered 30, 100 or 300 mg/kg AT-527 as a powder filled in empty porcine hard gelatin capsules (size 0). The monkeys were fasted overnight prior to dosing and fed 4 h after dosing. Three dosages were selected to provide assessments of dose proportionality, the top two representing potential doses for a repeated oral dose toxicity study in monkeys, and the lowest predicted to be more therapeutically relevant. A pill gun was used to place the capsule beyond the root of the animals’ tongues and their mouths were held loosely closed for approximately 30 sec to allow them to move the jaw and swallow the capsule. Immediately following capsule administration, 20 mL of water was given by mouth and then the mouth was opened to ensure the capsule was swallowed. Blood samples (~0.6 mL) were collected up to 72 h from three animals per dose group, and up to 4 h from the remaining two animals in each group, at the same time points described for rats. […] Blood samples were collected with a syringe from a peripheral blood vessel from restrained, non-sedated animals, immediately transferred to pre-chilled tubes containing ~1 mg K2EDTA•2H20 and 20 μL of 5 mM dichlorvos solution, mixed and placed on ice until plasma was prepared by centrifugation as described for rats. Immediately after centrifugation, plasma samples were extracted with 4 volumes ISS2, and the supernatants were clarified by centrifugation (12,000 rpm, 10 min, 4°C) and stored at ≤ -60°C until analyzed by LC-MS/MS as described below. After the 4-hr blood collection, two monkeys per dose group were anesthetized with intravenous injection of pentobarbital sodium (60 mg/kg) and then euthanized as described for rats. […] All analytes were quantitated by LC-MS/MS as described below.
LC-MS/MS analysis of rat and monkey plasma and tissue homogenate supernatants. For the analysis of AT-511 in rat plasma, aliquots were extracted with 10 volumes ISS2. The supernatants were clarified by centrifugation (4000 rpm for 10 min at 4°C) and 3 μL samples were injected onto an Acuity BEH C18 1.7 μm, 2.1 × 50 mm column and a Sciex API 4000 mass spectrometer (ESI positive ion, MRM mode). Mobile phases A (0.025% formic acid (FA) and 1 mM ammonium acetate (AA) in 5% ACN in water) and B (0.025% FA and 1 mM AA in 95% ACN in water) were used to elute samples (3 μL) at 0.6 mL/min with 10% B for 0.3 min followed by linear gradients to 60% B over 0.6 min and to 90% B over 0.2 min, and ending with 90% B for 0.4 min.
PK data analysis. […] The linear/log trapezoidal rule was applied in obtaining the PK parameters.

Series [3] can be described thus: Monkey PK study, liver and heart tissue levels. The series is classed as in vivo, cynomolgus monkey. To be noted: monkey; for Liver/Heart Ratio: 4 h; for Mean Concentration at 4 hr Postdose, Heart: footnoted values extrapolated below LLOQ.
Excerpt: as §1
For the analysis of AT-9010 in rat tissue homogenate supernatant, aliquots were diluted 1:2 with water and injected onto an Agilent Zorbax Extend C18 5 μm, 2.1 × 50 mm column and a Sciex API 4000 mass spectrometer (ESI positive ion, MRM mode). Mobile phases A (0.001% ammonia and 0.18 mM DBAA in water (1:1, v/v) and B (10 mM dimethylhexylamine (DMHA) and 3 mM AA in 50% ACN in water) were used to elute samples (60 μL) at 0.7 mL/min with 2% B for 0.8 min followed by a linear gradient to 30% B over 0.4 min, isocratic elution at 30% B for 0.4 min, a linear gradient to 95% B over 0.4 min, and ending with 95% B for 0.4 min. The analysis of AT-9010 in monkey tissue homogenate supernatant was the same except the sample injection volume was 20 μL. Attempts to measure tissue levels of other potentially formed TPs, including 2,6-diaminopurine-2’-F-2’-C-methylribosyl-5’-triphosphate and 2-amino-6-methylaminopurine-2’-F-2’-C-methylribosyl-5’-triphosphate (M2-TP), also used this method.
For the analysis of M2 and M3 in monkey tissue homogenate supernatant, aliquots were diluted 1:3 with water and injected onto an Acuity HSS T3 1.8 μm, 2.1 × 50 mm column and a Sciex API 6500 mass spectrometer (ESI positive ion, MRM mode). Mobile phases A (0.3% FA and 10 mM AA in water and B (0.3% FA and 10 mM AA in 95% ACN in water) were used to elute samples (1 μL) at 0.6 mL/min with 0% B for 0.4 min followed by linear gradients to 30% B over 0.5 min and to 95% B over 0.2 min, ending with isocratic elution at 95% B for 0.4 min.

Setting [4] is: both sexes, Sprague-Dawley, rat, in vivo, po, 500 mg/kg.

Turning to `CNc1nc(N)nc2c1ncn2[C@@H]1O[C@H](CO[P@](=O)(O)N[C@@H](C)C(=O)O)[C@@H](O)[C@@]1(C)F` [M1], the “plasma concentration, individual rats” value in series [1] (48.0 h) and in series [1] (72.0 h) was “BQL” throughout. Further, the AUC(0-t) amounted to 77.9 ± 20.3 µM·h in series [1] (setting [4]), 5.44 ± 2.76 µM·h in series [2] (30 mg/kg), 25.5 ± 10.1 µM·h in series [2] (100 mg/kg) and 35.6 ± 26.4 µM·h in series [2] (300 mg/kg). Also, the Cmax in series [1] (setting [4]) turned out to be 40.8 ± 9.7 µM; in series [2] (30 mg/kg), 0.94 ± 0.61 µM; in series [2] (100 mg/kg), 4.24 ± 2.84 µM; in series [2] (300 mg/kg), 4.44 ± 4.74 µM. Moreover, the MRT last in series [1] (setting [4]) is 2.54 ± 0.41 h; in series [2] (30 mg/kg) it was 7.06 ± 1.07 h; in series [2] (100 mg/kg), 7.22 ± 0.48 h; in series [2] (300 mg/kg), 11.4 ± 3.6 h. Moreover, the Tmax in series [1] (setting [4]) stood at 0.58 ± 0.14 h; in series [2] (30 mg/kg), 4.67 ± 2.31 h; in series [2] (300 mg/kg) it was 4.67 ± 1.16 h. Further, the plasma concentration entry in series [2] (single oral AT-527 30 mg/kg, 0.500 h, monkey 1) is recorded as “BQL”; in series [2] (single oral AT-527 30 mg/kg, 48.0 h, monkey 1), “BQL”; in series [2] (single oral AT-527 30 mg/kg, 48.0 h, monkey 2), “BQL”; in series [2] (single oral AT-527 30 mg/kg, 72.0 h, monkey 1) it was “BQL”; in series [2] (single oral AT-527 30 mg/kg, 72.0 h, monkey 2), “BQL”; in series [2] (single oral AT-527 30 mg/kg, 72.0 h, monkey 3), “BQL”. In addition, the plasma concentration result is “BQL” in series [2] (single oral AT-527 100 mg/kg, 48.0 h, monkey 1); “BQL” in series [2] (single oral AT-527 100 mg/kg, 48.0 h, monkey 2); “BQL” in series [2] (single oral AT-527 100 mg/kg, 72.0 h, monkey 1); “BQL” in series [2] (single oral AT-527 100 mg/kg, 72.0 h, monkey 2); “BQL” in series [2] (single oral AT-527 100 mg/kg, 72.0 h, monkey 3); “BQL” in series [2] (single oral AT-527 300 mg/kg, 0.500 h, monkey 1). Besides, the plasma concentration entry in series [2] (single oral AT-527 300 mg/kg, 48.0 h, monkey 2) is on record as “BQL”; in series [2] (single oral AT-527 300 mg/kg, 48.0 h, monkey 3), “BQL”; in series [2] (single oral AT-527 300 mg/kg, 72.0 h, monkey 1), “BQL”; in series [2] (single oral AT-527 300 mg/kg, 72.0 h, monkey 2), “BQL”; in series [2] (single oral AT-527 300 mg/kg, 72.0 h, monkey 3), “BQL”. The “Liver/Heart Ratio” value in series [3] (AT-527 30 mg/kg oral) is reported as 3.7; in series [3] (AT-527 100 mg/kg oral), 3.6; in series [3] (AT-527 300 mg/kg oral), 5.6.
In the case of `C[C@@]1(F)[C@H](O)[C@@H](COP(=O)(O)O)O[C@H]1n1cnc2c(=O)[nH]c(N)nc21` [M3], in series [3] (AT-527 30 mg/kg oral), the “Mean Concentration at 4 hr Postdose, Liver” value (shortened to “Mean Concentration … Liver”) is given as 78.8 pmol/g; the “Liver/Heart Ratio” value is 11^a; the “Mean Concentration at 4 hr Postdose, Heart” value (“Mean Concentration … Heart” for short) is 7.5^a pmol/g. In addition, in series [3] (AT-527 100 mg/kg oral), the “Mean Concentration … Liver” value was found to be 203 pmol/g; the “Liver/Heart Ratio” value is reported as 26^a; the “Mean Concentration … Heart” value is 7.9^a pmol/g. Besides, in series [3] (AT-527 300 mg/kg oral), the “Mean Concentration … Liver” value amounted to 1180 pmol/g; the “Liver/Heart Ratio” value came to 72; the “Mean Concentration … Heart” value is 16.5 pmol/g.
Consider `CNc1nc(N)nc2c1ncn2[C@@H]1O[C@H](COP(=O)(O)O)[C@@H](O)[C@@]1(C)F` [M2], for which, in series [3] (AT-527 30 mg/kg oral), the “Mean Concentration … Liver” value was determined as 103 pmol/g; the “Liver/Heart Ratio” value is listed as 19^a; the “Mean Concentration … Heart” value is recorded as 5.4^a pmol/g. In series [3] (AT-527 100 mg/kg oral), the “Mean Concentration … Liver” value amounted to 479 pmol/g; the “Liver/Heart Ratio” value is on record as 48^a; the “Mean Concentration … Heart” value is 9.9^a pmol/g. Besides, in series [3] (AT-527 300 mg/kg oral), the “Mean Concentration … Liver” value is reported as 87.9 pmol/g; the “Liver/Heart Ratio” value is 13^a; the “Mean Concentration … Heart” value is recorded as 6.6^a pmol/g.
On to `CNc1nc(N)nc2c1ncn2[C@@H]1O[C@H](CO[P@@](=O)(N[C@@H](C)C(=O)OC(C)C)Oc2ccccc2)[C@@H](O)[C@@]1(C)F` [AT-527], for which the “unusual or adverse clinical signs” value was “no such signs noted” in series [1] (rats, single oral 500 mg/kg) and “no such signs noted” in series [2] (monkeys, single oral 30, 100 or 300 mg/kg).
